Data on 17 compounds can be found in US20260297081A1, “COMPOUNDS AND METHODS OF TREATING CANCERS” (Cullgen Inc., priority 2023, published 2026).

This assay addresses CDK4 (Homo sapiens, UniProt P11802+Q16531). Put plainly: HiBiT detection of HiBiT-tagged CDK4 protein level in MCF7 cells, 16 hours (Table 8). The note with it: MCF7 cells stably expressing HiBiT tagged target proteins; for activity at 0.01 µM: 10 nM, read-out: % CDK4 Relative Level (10 nM); for activity at 0.1 µM: 100 nM, read-out: % CDK4 Relative Level (100 nM). Set-up: expressed in transfected cells; host or cells: MCF7. It is filed as cell-based. The protocol:
HiBiT detection system quantitatively measures total amounts of HiBiT-tagged proteins using a luminescent based method. MCF7 cells stably expressing HiBiT tagged target proteins were treated with heterobifunctional compounds at indicated concentrations for 16 hours, then lysed with Nano-Glo HiBiT Lytic detection reagents.
On the technique in general: With HiBiT, luminescence reflects the tagged protein that the partner subunit can reach.

Molecules are shown by their SMILES.

Sequence of CDK4 (P11802 whole entry): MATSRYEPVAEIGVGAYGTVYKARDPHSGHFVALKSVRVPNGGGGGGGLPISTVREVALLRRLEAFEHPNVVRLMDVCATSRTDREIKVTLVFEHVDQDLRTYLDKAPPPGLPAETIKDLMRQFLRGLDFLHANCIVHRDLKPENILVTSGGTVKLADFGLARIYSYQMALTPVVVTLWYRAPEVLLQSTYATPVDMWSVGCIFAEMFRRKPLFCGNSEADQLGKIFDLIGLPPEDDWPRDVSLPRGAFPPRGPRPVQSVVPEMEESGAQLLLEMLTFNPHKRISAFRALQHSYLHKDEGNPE
Sequence of CDK4 (P24385 whole entry partner): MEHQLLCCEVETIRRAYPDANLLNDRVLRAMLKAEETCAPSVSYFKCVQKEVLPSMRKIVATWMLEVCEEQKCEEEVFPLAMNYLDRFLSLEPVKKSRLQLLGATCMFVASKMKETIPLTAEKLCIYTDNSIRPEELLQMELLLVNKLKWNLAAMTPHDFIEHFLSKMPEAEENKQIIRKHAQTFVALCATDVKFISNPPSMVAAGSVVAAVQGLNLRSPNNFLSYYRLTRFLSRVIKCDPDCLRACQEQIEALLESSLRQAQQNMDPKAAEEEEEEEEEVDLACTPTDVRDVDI
Sequence of CDK4 (Q16531 2-1140 limits assumed): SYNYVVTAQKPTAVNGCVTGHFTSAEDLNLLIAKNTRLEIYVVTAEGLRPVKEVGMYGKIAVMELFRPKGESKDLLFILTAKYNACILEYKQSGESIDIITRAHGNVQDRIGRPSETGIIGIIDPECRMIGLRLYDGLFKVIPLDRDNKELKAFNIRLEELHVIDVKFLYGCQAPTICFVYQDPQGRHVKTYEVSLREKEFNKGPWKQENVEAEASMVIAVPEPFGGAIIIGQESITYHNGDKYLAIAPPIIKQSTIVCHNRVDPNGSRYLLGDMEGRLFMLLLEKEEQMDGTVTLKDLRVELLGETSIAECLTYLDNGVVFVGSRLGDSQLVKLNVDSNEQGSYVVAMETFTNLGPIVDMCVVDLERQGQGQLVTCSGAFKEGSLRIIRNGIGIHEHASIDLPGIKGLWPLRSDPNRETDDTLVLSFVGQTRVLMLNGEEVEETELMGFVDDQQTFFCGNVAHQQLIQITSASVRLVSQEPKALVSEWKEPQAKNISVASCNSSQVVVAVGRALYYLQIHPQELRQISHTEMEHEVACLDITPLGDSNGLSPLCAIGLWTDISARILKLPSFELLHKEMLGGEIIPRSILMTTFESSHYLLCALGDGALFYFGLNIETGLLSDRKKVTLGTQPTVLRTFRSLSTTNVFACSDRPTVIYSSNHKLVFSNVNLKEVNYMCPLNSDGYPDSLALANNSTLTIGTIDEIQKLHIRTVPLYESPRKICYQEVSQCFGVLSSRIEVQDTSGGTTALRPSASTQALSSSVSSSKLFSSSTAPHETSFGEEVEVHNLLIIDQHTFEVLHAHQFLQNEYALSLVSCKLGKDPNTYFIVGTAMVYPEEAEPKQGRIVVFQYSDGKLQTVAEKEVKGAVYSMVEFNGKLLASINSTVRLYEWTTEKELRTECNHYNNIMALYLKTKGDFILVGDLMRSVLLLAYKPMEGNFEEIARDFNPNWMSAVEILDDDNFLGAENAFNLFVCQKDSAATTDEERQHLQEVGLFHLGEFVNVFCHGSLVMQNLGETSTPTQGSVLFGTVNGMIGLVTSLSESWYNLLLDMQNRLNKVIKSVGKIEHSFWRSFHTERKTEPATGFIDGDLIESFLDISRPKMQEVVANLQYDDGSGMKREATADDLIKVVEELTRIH

With `CNc1ccc(C(=O)Nc2ccc(N(C)C)nn2)c(NCCCCCCCC(=O)N2CCN(c3ccc(Nc4ncc5cc6n(c5n4)C4(CCCCC4)CNC6=O)nc3)CC2)n1` [CPD-637, N-(6-(dimethylamino)pyridazin-3-yl)-6-(methylamino)-2-((8-oxo-8-(4-(6-((6′-oxo-7′,8′-dihydro-6′H-spiro[cyclohexane-1,9′-pyrazino[1′,2′:1,5]pyrrolo[2,3-d]pyrimidin]-2′-yl)amino)pyridin-3-yl)piperazin-1-yl)octyl)amino)nicotinamide], the activity at 0.01 µM was > 85% and the activity at 0.1 µM was > 85%.
On to `CNc1ccc(C(=O)Nc2ccc(N(C)C)nn2)c(NCCCCCCC(=O)N2CCN(c3ccc(Nc4ncc(F)c(-c5cc(F)c6nc(C)n(C(C)C)c6c5)n4)nc3)CC2)n1` [CPD-652, N-(6-(dimethylamino)pyridazin-3-yl)-2-((7-(4-(6-((5-fluoro-4-(4-fluoro-1-isopropyl-2-methyl-1H-benzo[d]imidazol-6-yl)pyrimidin-2-yl)amino)pyridin-3-yl)piperazin-1-yl)-7-oxoheptyl)amino)-6-(methylamino)nicotinamide], for which the activity at 0.01 µM is > 85% and the activity at 0.1 µM was > 85%.
On to `CNc1ccc(C(=O)Nc2ccc(N(C)C)nn2)c(NCCCCCCCCNC(=O)CN2CCN(c3ccc(Nc4ncc(F)c(-c5cc(F)c6nc(C)n(C(C)C)c6c5)n4)nc3)CC2)n1` [CPD-664, N-(6-(dimethylamino)pyridazin-3-yl)-2-((8-(2-(4-(6-((5-fluoro-4-(4-fluoro-1-isopropyl-2-methyl-1H-benzo[d]imidazol-6-yl)pyrimidin-2-yl)amino)pyridin-3-yl)piperazin-1-yl)acetamido)octyl)amino)-6-(methylamino)nicotinamide], for which the activity at 0.01 µM is > 85% and the activity at 0.1 µM was > 85%.
In the case of `CNc1ccc(C(=O)Nc2ccc(N(C)C)nn2)c(NCCOCCC(=O)NC2CCC(Nc3ncc4ccc(=O)n(C5CCCC5)c4n3)CC2)n1` (stereo not shown) [CPD-672, 2-((2-(3-((4-((8-cyclopentyl-7-oxo-7,8-dihydropyrido[2,3-d]pyrimidin-2-yl)amino)cyclohexyl)amino)-3-oxopropoxy)ethyl)amino)-N-(6-(dimethylamino)pyridazin-3-yl)-6-(methylamino)nicotinamide], the activity at 0.01 µM is > 85% and the activity at 0.1 µM was > 85%.
In the case of `CNc1ccc(C(=O)Nc2ccc(N(C)C)nn2)c(NCCOCCC(=O)N2CCN(c3ccc(Nc4ncc5cc6n(c5n4)C4(CCCCC4)CNC6=O)nc3)CC2)n1` [CPD-638], the activity at 0.01 µM is > 85% and the activity at 0.1 µM was > 85%.
Consider `CNc1ccc(C(=O)Nc2ccc(N(C)C)nn2)c(NCCNC(=O)CN2CCN(c3ccc(Nc4ncc5cc(C(=O)N(C)C)n(C6CCCC6)c5n4)nc3)CC2)n1` [CPD-624, 7-cyclopentyl-2-((5-(4-(2-((2-((3-((6-(dimethylamino)pyridazin-3-yl)carbamoyl)-6-(methylamino)pyridin-2-yl)amino)ethyl)amino)-2-oxoethyl)piperazin-1-yl)pyridin-2-yl)amino)-N,N-dimethyl-7H-pyrrolo[2,3-d]pyrimidine-6-carboxamide], for which the activity at 0.01 µM is 55 to 85% and the activity at 0.1 µM was 55 to 85%.
On to `CNc1ccc(C(=O)Nc2ccc(N(C)C)nn2)c(NCCOCCNC(=O)CN2CCN(Cc3ccc(Nc4ncc(F)c(-c5cc(F)c6nc(C)n(C(C)C)c6c5)n4)nc3)CC2)n1` [CPD-615, N-(6-(dimethylamino)pyridazin-3-yl)-2-((2-(2-(2-(4-((6-((5-fluoro-4-(4-fluoro-1-isopropyl-2-methyl-1H-benzo[d]imidazol-6-yl)pyrimidin-2-yl)amino)pyridin-3-yl)methyl)piperazin-1-yl)acetamido)ethoxy)ethyl)amino)-6-(methylamino)nicotinamide], for which the activity at 0.01 µM is > 85% and the activity at 0.1 µM was > 85%.
Turning to `CNc1ccc(C(=O)Nc2ccc(N(C)C)nn2)c(NCCCNC(=O)CN2CCN(c3ccc(Nc4ncc5cc6n(c5n4)C4(CCCCC4)CNC6=O)nc3)CC2)n1` [CPD-641, N-(6-(dimethylamino)pyridazin-3-yl)-6-(methylamino)-2-((3-(2-(4-(6-((6′-oxo-7′,8′-dihydro-6′H-spiro[cyclohexane-1,9′-pyrazino[1′,2′:1,5]pyrrolo[2,3-d]pyrimidin]-2′-yl)amino)pyridin-3-yl)piperazin-1-yl)acetamido)propyl)amino)nicotinamide], the activity at 0.01 µM was > 85% and the activity at 0.1 µM is > 85%.
In the case of `CNc1ccc(C(=O)Nc2ccc(N(C)C)nn2)c(NCCCNC(=O)CN2CCN(c3ccc(Nc4ncc(F)c(-c5cc(F)c6nc(C)n(C(C)C)c6c5)n4)nc3)CC2)n1` [CPD-659, N-(6-(dimethylamino)pyridazin-3-yl)-2-((3-(2-(4-(6-((5-fluoro-4-(4-fluoro-1-isopropyl-2-methyl-1H-benzo[d]imidazol-6-yl)pyrimidin-2-yl)amino)pyridin-3-yl)piperazin-1-yl)acetamido)propyl)amino)-6-(methylamino)nicotinamide], the activity at 0.01 µM was > 85% and the activity at 0.1 µM is > 85%.
For the compound `CNc1ccc(C(=O)Nc2ccc(N(C)C)nn2)c(NCCCCCCC(=O)N2CCN(Cc3ccc(Nc4ncc(F)c(-c5cc(F)c6nc(C)n(C(C)C)c6c5)n4)nc3)CC2)n1` [CPD-604, N-(6-(dimethylamino)pyridazin-3-yl)-2-((7-(4-((6-((5-fluoro-4-(4-fluoro-1-isopropyl-2-methyl-1H-benzo[d]imidazol-6-yl)pyrimidin-2-yl)amino)pyridin-3-yl)methyl)piperazin-1-yl)-7-oxoheptyl)amino)-6-(methylamino)nicotinamide], the activity at 0.01 µM is > 85% and the activity at 0.1 µM is > 85%.
Consider `CNc1ccc(C(=O)Nc2ccc(N(C)C)nn2)c(NCCCCC(=O)N2CCN(c3ccc(Nc4ncc(F)c(-c5cc(F)c6nc(C)n(C(C)C)c6c5)n4)nc3)CC2)n1` [CPD-650, N-(6-(dimethylamino)pyridazin-3-yl)-2-((5-(4-(6-((5-fluoro-4-(4-fluoro-1-isopropyl-2-methyl-1H-benzo[d]imidazol-6-yl)pyrimidin-2-yl)amino)pyridin-3-yl)piperazin-1-yl)-5-oxopentyl)amino)-6-(methylamino)nicotinamide], for which the activity at 0.01 µM is > 85% and the activity at 0.1 µM is > 85%.
On to `CNc1ccc(C(=O)Nc2ccc(N(C)C)nn2)c(NCCNC(=O)CN2CCN(c3ccc(Nc4ncc5cc6n(c5n4)C4(CCCCC4)CNC6=O)nc3)CC2)n1` [CPD-640, N-(6-(dimethylamino)pyridazin-3-yl)-6-(methylamino)-2-((2-(2-(4-(6-((6′-oxo-7′,8′-dihydro-6′H-spiro[cyclohexane-1,9′-pyrazino[1′,2′:1,5]pyrrolo[2,3-d]pyrimidin]-2′-yl)amino)pyridin-3-yl)piperazin-1-yl)acetamido)ethyl)amino)nicotinamide], for which the activity at 0.01 µM is > 85% and the activity at 0.1 µM fell in the range of 55 to 85%.
The matching figures for `CNc1ccc(C(=O)Nc2ccc(N(C)C)nn2)c(NCCOCCOCCC(=O)N2CCN(c3ccc(Nc4ncc5cc(C(=O)N(C)C)n(C6CCCC6)c5n4)nc3)CC2)n1` [CPD-623, 7-cyclopentyl-2-((5-(4-(3-(2-(2-((3-((6-(dimethylamino)pyridazin-3-yl)carbamoyl)-6-(methylamino)pyridin-2-yl)amino)ethoxy)ethoxy)propanoyl)piperazin-1-yl)pyridin-2-yl)amino)-N,N-dimethyl-7H-pyrrolo[2,3-d]pyrimidine-6-carboxamide]: > 85% and > 85%.
For `CNc1ccc(C(=O)Nc2ccc(N(C)C)nn2)c(NCCOCCOCCC(=O)N2CCN(c3ccc(Nc4ncc(F)c(-c5cc(F)c6nc(C)n(C(C)C)c6c5)n4)nc3)CC2)n1` [CPD-655, N-(6-(dimethylamino)pyridazin-3-yl)-2-((2-(2-(3-(4-(6-((5-fluoro-4-(4-fluoro-1-isopropyl-2-methyl-1H-benzo[d]imidazol-6-yl)pyrimidin-2-yl)amino)pyridin-3-yl)piperazin-1-yl)-3-oxopropoxy)ethoxy)ethyl)amino)-6-(methylamino)nicotinamide] the same measures were > 85% and > 85%.
The matching figures for `CNc1ccc(C(=O)Nc2ccc(N(C)C)nn2)c(NCCOCCNC(=O)CN2CCN(c3ccc(Nc4ncc5cc6n(c5n4)C4(CCCCC4)CNC6=O)nc3)CC2)n1` [CPD-647, N-(6-(dimethylamino)pyridazin-3-yl)-6-(methylamino)-2-((2-(2-(2-(4-(6-((6′-oxo-7′,8′-dihydro-6′H-spiro[cyclohexane-1,9′-pyrazino[1′,2′:1,5]pyrrolo[2,3-d]pyrimidin]-2′-yl)amino)pyridin-3-yl)piperazin-1-yl)acetamido)ethoxy)ethyl)amino)nicotinamide]: > 85% and > 85%.
For the compound `CNc1ccc(C(=O)Nc2ccc(N(C)C)nn2)c(NCCCC(=O)NC2CCC(Nc3ncc4ccc(=O)n(C5CCCC5)c4n3)CC2)n1` (stereo not shown) [CPD-667, 2-((4-((4-((8-cyclopentyl-7-oxo-7,8-dihydropyrido[2,3-d]pyrimidin-2-yl)amino)cyclohexyl)amino)-4-oxobutyl)amino)-N-(6-(dimethylamino)pyridazin-3-yl)-6-(methylamino)nicotinamide], the activity at 0.01 µM was > 85% and the activity at 0.1 µM is > 85%.
As to `CNc1ccc(C(=O)Nc2ccc(N(C)C)nn2)c(NCCOCCNC(=O)CN2CCN(c3ccc(Nc4ncc(F)c(-c5cc(F)c6nc(C)n(C(C)C)c6c5)n4)nc3)CC2)n1` [CPD-665, N-(6-(dimethylamino)pyridazin-3-yl)-2-((2-(2-(2-(4-(6-((5-fluoro-4-(4-fluoro-1-isopropyl-2-methyl-1H-benzo[d]imidazol-6-yl)pyrimidin-2-yl)amino)pyridin-3-yl)piperazin-1-yl)acetamido)ethoxy)ethyl)amino)-6-(methylamino)nicotinamide], the activity at 0.01 µM lay in the range of 55 to 85% and the activity at 0.1 µM is > 85%.
